Assay results: patent US20240293405A1, “(1H-PYRROLO[2,3-B]PYRIDIN-1-YL)PYRIMIDIN-2-YL-AMINO-PHENYL-ACRYLAMIDE INHIBITORS OF EGFR FOR USE IN THE TREATMENT OF BRAIN TUMORS” (Dana-Farber Cancer Institute, Inc., priority 2021, published 2024)
Where “and” joins values, the source holds several entries; their conditions need not be identical. Equal entries are not always repeated. Entries after “also recorded” stand apart in the source; their conditions may differ. Where two headings read alike, the source gives them in different places.

How the values were obtained:
U251-EGFRvIII cells = assay: Viability/proliferation of U251-EGFRvIII cells; assay type: cell-based, human
Protocol: Cells were seeded in 96-well plates at a density of 1,000 cells per well and treated with two-fold serial dilutions of compounds with a starting concentration of 20 μM. Cell viability was assessed after three days of treatment by CellTiter-Glo (Promega). Curve fitting analysis and IC50 value determination were performed using GraphPad Prism 8.
In parallel, the conventional human GBM U251 cell line was used as a surrogate model for both in vitro and in vivo studies. U251 cells were engineered to stably express EGFRvIII (U251-EGFRvIII) via retroviral-mediated gene transfer.

EGFR = EGFR (Homo sapiens, UniProt P00533); assay: Kinase binding constant (Kd)
Sequence of EGFR (P00533 25-1210): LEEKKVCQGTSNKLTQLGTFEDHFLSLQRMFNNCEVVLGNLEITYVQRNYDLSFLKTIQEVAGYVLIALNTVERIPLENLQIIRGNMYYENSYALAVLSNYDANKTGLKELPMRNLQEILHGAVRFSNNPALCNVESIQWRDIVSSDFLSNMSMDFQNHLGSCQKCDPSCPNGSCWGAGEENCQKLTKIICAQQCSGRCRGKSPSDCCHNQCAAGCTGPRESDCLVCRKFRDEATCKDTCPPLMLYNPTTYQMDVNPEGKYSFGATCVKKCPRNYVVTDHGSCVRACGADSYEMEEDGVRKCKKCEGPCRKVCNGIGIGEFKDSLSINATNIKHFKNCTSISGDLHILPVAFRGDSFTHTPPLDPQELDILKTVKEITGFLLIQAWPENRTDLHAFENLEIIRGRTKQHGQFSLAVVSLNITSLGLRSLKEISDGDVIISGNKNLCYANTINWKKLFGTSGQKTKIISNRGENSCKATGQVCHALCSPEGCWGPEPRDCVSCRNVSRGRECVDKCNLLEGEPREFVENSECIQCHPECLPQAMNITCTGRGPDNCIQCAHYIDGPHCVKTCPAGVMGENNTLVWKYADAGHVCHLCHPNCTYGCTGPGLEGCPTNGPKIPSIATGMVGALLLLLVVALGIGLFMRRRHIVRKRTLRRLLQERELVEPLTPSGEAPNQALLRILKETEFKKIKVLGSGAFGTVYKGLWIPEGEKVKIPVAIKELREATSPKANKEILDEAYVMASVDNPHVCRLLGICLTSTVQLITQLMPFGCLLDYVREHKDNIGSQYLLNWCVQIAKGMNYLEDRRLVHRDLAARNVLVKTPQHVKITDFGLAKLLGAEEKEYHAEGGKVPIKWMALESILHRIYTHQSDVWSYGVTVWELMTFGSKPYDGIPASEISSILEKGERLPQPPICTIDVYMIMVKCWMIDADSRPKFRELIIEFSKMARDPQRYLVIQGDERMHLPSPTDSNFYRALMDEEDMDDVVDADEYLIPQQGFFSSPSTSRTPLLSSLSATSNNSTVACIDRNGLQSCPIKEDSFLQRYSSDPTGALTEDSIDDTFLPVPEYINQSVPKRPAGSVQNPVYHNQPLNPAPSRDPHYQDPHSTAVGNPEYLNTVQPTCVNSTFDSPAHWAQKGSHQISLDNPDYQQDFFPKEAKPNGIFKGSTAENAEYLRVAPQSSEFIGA
Excerpt: (§1) EGFR amplifications and/or mutations are common in GBM, estimated to occur in over 50% of patients.

EGFR(E746-A750del) = EGFR(E746-A750del) (Homo sapiens, UniProt P00533, DEL746-750); assay: Kinase binding constant (Kd)
Excerpt: as §1

EGFR(G719C) = EGFR(G719C) (Homo sapiens, UniProt P00533, G719C); assay: Kinase binding constant (Kd)
Excerpt: as §1

EGFR(G719S) = EGFR(G719S) (Homo sapiens, UniProt P00533, G719S); assay: Kinase binding constant (Kd)
Excerpt: as §1

[1] = molecular target: EGFR(L747-E749del, A750P) (Homo sapiens, UniProt P00533, A750P/DEL747-749); assay: Kinase binding constant (Kd)
Excerpt: as §1

[2] = molecular target: EGFR(L747-S752del, P753S) (Homo sapiens, UniProt P00533, DEL747-752/P753S); assay: Kinase binding constant (Kd)
Excerpt: as §1

EGFR(L747-T751del,Sins) = EGFR(L747-T751del,Sins) (Homo sapiens, UniProt P00533, DELINS747-751S); assay: Kinase binding constant (Kd)
Sequence of EGFR(L747-T751del,Sins) (P00533 with tags, fused parts or gaps DELINS747-751S): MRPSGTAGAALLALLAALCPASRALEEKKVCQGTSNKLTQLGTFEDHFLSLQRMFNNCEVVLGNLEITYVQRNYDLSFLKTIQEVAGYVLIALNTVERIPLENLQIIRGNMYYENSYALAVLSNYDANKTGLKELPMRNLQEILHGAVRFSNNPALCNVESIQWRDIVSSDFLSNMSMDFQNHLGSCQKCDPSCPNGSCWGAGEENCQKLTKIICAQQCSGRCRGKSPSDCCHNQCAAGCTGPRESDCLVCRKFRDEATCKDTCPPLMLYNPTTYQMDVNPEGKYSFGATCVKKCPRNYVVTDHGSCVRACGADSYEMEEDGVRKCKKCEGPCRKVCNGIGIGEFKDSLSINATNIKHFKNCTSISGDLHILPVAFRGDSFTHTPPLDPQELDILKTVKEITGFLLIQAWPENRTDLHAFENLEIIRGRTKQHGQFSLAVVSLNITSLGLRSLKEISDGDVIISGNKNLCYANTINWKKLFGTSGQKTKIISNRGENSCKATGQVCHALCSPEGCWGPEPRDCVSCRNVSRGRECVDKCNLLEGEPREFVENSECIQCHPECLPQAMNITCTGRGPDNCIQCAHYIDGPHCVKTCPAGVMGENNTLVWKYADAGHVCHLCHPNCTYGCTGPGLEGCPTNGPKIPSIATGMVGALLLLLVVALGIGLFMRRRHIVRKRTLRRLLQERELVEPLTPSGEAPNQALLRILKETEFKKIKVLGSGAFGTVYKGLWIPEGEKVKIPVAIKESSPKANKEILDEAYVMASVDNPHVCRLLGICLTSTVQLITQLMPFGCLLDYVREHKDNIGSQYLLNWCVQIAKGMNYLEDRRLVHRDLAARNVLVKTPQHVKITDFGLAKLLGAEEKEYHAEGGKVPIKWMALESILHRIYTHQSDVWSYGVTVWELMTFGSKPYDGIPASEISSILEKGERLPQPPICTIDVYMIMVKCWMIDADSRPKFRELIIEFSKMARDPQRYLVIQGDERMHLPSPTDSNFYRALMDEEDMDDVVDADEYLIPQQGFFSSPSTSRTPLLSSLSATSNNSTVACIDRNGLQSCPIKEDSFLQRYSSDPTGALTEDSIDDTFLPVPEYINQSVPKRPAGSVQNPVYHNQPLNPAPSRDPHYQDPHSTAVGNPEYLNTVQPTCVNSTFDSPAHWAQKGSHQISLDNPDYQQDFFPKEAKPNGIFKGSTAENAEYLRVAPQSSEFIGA
Excerpt: as §1

EGFR(L858R) = EGFR(L858R) (Homo sapiens, UniProt P00533, L858R); assay: Kinase binding constant (Kd)
Excerpt: as §1

EGFR(L858R,T790M) = EGFR(L858R,T790M) (Homo sapiens, UniProt P00533, L858R/T790M); assay: Kinase binding constant (Kd)
Sequence of EGFR(L858R,T790M) (P00533 25-1210 T790M/L858R): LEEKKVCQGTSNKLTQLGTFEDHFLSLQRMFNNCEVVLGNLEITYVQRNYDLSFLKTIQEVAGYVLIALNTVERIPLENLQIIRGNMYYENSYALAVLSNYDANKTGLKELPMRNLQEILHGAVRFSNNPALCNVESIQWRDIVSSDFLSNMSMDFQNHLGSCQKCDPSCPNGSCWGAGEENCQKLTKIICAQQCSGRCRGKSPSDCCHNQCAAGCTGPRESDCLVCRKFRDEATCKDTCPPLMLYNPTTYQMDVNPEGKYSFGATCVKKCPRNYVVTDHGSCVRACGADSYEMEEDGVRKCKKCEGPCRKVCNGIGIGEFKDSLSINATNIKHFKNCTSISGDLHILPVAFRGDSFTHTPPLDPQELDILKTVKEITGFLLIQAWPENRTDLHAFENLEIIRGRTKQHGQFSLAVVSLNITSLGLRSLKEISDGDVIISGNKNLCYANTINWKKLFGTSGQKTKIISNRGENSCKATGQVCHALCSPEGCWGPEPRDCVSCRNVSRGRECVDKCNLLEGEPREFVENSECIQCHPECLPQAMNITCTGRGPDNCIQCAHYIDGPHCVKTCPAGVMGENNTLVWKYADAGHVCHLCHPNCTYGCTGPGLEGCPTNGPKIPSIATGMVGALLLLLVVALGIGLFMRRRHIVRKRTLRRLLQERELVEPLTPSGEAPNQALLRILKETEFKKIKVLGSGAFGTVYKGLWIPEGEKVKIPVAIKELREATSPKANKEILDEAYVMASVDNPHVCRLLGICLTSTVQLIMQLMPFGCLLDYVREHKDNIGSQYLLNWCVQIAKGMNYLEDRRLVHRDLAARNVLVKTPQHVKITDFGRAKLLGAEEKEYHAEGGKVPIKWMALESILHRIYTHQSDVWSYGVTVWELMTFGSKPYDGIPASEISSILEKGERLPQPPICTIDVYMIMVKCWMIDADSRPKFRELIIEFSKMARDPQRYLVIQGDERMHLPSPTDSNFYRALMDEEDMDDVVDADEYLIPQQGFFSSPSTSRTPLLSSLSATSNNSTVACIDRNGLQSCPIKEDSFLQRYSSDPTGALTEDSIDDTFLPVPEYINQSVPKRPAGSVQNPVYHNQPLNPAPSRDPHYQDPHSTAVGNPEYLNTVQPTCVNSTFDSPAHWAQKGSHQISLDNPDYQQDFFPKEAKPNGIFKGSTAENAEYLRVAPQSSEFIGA
Excerpt: as §1

EGFR(L861Q) = EGFR(L861Q) (Homo sapiens, UniProt P00533, L861Q); assay: Kinase binding constant (Kd)
Excerpt: as §1

EGFR(S752-I759del) = EGFR(S752-I759del) (Homo sapiens, UniProt P00533, DEL752-759); assay: Kinase binding constant (Kd)
Excerpt: as §1

EGFR(T790M) = EGFR(T790M) (Homo sapiens, UniProt P00533, T790M); assay: Kinase binding constant (Kd)
Excerpt: as §1

ERBB2 = ERBB2 (Homo sapiens, UniProt P04626); assay: Kinase binding constant (Kd)
Sequence of ERBB2 (P04626 23-1255): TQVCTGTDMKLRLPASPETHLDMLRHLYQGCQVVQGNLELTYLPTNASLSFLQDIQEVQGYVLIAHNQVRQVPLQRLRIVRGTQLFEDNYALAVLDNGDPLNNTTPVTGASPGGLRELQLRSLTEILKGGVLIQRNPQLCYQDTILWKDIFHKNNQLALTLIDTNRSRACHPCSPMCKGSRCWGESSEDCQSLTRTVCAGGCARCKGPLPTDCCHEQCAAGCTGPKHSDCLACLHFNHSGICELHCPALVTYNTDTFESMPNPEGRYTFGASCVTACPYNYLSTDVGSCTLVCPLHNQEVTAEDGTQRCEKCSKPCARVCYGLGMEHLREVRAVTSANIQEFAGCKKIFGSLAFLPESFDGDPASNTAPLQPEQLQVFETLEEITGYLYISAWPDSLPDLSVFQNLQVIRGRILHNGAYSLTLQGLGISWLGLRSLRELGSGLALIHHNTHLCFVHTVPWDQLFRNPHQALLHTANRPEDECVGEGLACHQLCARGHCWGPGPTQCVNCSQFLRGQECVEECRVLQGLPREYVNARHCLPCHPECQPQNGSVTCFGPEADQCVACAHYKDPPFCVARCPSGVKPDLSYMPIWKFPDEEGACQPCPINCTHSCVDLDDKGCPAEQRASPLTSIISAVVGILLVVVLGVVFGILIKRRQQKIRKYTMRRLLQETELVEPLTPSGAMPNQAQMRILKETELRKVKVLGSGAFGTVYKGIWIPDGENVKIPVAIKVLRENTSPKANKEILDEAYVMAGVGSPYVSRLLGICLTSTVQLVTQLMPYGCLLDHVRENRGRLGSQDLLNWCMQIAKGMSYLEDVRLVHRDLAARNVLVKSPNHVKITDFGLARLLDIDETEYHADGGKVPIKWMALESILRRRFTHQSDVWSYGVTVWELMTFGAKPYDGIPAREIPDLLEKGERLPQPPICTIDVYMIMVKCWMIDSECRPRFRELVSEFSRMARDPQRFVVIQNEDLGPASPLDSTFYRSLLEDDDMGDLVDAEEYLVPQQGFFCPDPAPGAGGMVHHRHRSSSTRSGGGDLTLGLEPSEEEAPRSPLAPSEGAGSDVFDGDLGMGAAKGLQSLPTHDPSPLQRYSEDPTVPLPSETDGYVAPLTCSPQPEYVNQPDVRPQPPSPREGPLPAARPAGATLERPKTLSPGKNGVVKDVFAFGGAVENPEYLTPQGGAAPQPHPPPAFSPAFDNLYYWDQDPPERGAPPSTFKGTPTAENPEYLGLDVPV
Excerpt: as §1

ERBB4 = ERBB4 (Homo sapiens, UniProt Q15303); assay: Kinase binding constant (Kd)
Excerpt: as §1

[3] = H1975 SQ lung tumor xenograft in NOD.SCID mice; assay type: in vivo; settings: NOD.SCID, mouse, plasma; H1975 model, 4 hours post-dose, oral; read-out: plasma concentration at which anti-tumor activity was noted
Protocol: (§2) Compound 1 was also evaluated in xenograft models of lung tumor cell lines harboring EGFR single and double mutations in the mouse.

[4] = system: H1975 cells: EGFR L858R-T790M; assay: H1975 SQ lung tumor xenograft in NOD.SCID mice; assay type: in vivo; settings: H1975 lung tumor implants, oral
Protocol: as §2

Caco-2 cells = assay: Permeation and absorption in Caco-2 cells; assay type: in vitro ADME
Excerpt: Further understanding of DDI risk will await definition of Phase 2 doses and exposures.

[5] = Plasma, brain and lung levels after 7 days oral dosing; assay type: in vivo, Sprague Dawley Rats; settings: Sprague Dawley, rat, 24 hrs after last dosing
BT333 cells = assay: Cell viability, patient-derived GBM line BT333; settings: Homo sapiens, 72 h
Protocol: Primary human glioblastoma lines BT112, BT179 and BT333 were maintained in NeuroCult proliferation medium (human) (StemCell Technologies) with 20 ng/ml EGF, 10 ng/ml FGF and 0.0002% Heparin.

## C=CC(=O)Nc1cc(Nc2nccc(-n3ccc4cccnc43)n2)c(OC)cc1N(C)CCN(C)C [Compound 1, N-(5-((4-(1H-pyrrolo[2,3-b]pyridin-1-yl)pyrimidin-2-yl)amino)-2-((2-(dimethylamino)ethyl)(methyl)amino)-4-methoxyphenyl)acrylamide]
U251-EGFRvIII cells; Homo sapiens, values of the text and Table 9, read-out: IC50, viability of U251-EGFRvIII cells
  IC50: 1520 nM
U251-EGFRvIII cells; Homo sapiens, Table 2, read-out: IC50 on U251-EGFRvIII cell proliferation
  IC50: 1480 nM
U251-EGFRvIII cells; U251-EGFRvIII cells
  cell survival, fold less than that of erlotinib: 9 fold
  cell survival, fold less than that of gefitinib: 13 fold
U251-EGFRvIII cells; values of the text and Table 9, read-out: IC50, viability of U251-EGFRvIII cells
  IC50: 1500 nM
EGFR
  activity against wild-type EGFR: little activity
EGFR; EGFR wild type
  Kd: 4.9 nM
EGFR(E746-A750del)
  Kd: 0.7 nM
EGFR(G719C)
  Kd: 2.2 nM
EGFR(G719S)
  Kd: 1.7 nM
[1]
  Kd: 0.97 nM
[2]
  Kd: 3.1 nM
EGFR(L747-T751del,Sins)
  Kd: 2 nM
EGFR(L858R)
  Kd: 4.6 nM
EGFR(L858R,T790M)
  Kd: 0.11 nM
EGFR(L861Q)
  Kd: 3.9 nM
EGFR(S752-I759del)
  Kd: 2.9 nM
EGFR(T790M)
  Kd: 0.15 nM
ERBB2
  Kd: 11 nM
ERBB4
  Kd: 11 nM
[3]
  concentration at 4 h: 800 ng/mL and 1.6 µM
[4]
  tumor response: substantial tumor regression
Caco-2 cells
  permeability in Caco-2 cells: Moderate permeability
  substrate of efflux transporters: not likely a transporter substrate; also recorded: not likely a substrate of efflux transporters; also recorded: not a likely substrate of efflux transporters
Caco-2 cells; listed as Compound 11
  substrate of efflux transporters: unlikely that Compound 11 is a substrate of efflux transporters; also recorded: not a substrate
[5]; brain, 10 mg/kg po qd 7 days, Female, read-out: Brain
  concentration at 24 h: 39.8 ng/g
[5]; brain, 10 mg/kg po qd 7 days, Male, read-out: Brain
  concentration at 24 h: 14.9 ng/g
[5]; brain, 50 mg/kg po qd 7 days, Female, read-out: Brain
  concentration at 24 h: 3770 ng/g
[5]; brain, 50 mg/kg po qd 7 days, Male, read-out: Brain
  concentration at 24 h: 2080 ng/g
[5]; lung, 10 mg/kg po qd 7 days, Female, read-out: Lung
  concentration at 24 h: 1220 ng/g
[5]; lung, 10 mg/kg po qd 7 days, Male, read-out: Lung
  concentration at 24 h: 329 ng/g
[5]; lung, 50 mg/kg po qd 7 days, Female, read-out: Lung
  concentration at 24 h: 45000 ng/g
[5]; lung, 50 mg/kg po qd 7 days, Male, read-out: Lung
  concentration at 24 h: 9710 ng/g
[5]; plasma, 10 mg/kg po qd 7 days, Female, read-out: Plasma
  concentration at 24 h: 0.0208 µg/mL
[5]; plasma, 10 mg/kg po qd 7 days, Male, read-out: Plasma
  concentration at 24 h: 0.0106 µg/mL
[5]; plasma, 50 mg/kg po qd 7 days, Female, read-out: Plasma
  concentration at 24 h: 0.244 µg/mL
[5]; plasma, 50 mg/kg po qd 7 days, Male, read-out: Plasma
  concentration at 24 h: 0.149 µg/mL
BT333 cells
  IC50: 3280 nM
